# From PubChem BioAssay (NCI)
# “And” between values parts separate entries of the source, which are not always exact repeats. Equal entries are not always repeated.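 Results reflect a 48-hour exposure of cells in 96-well plates to compound at five concentrations. GI50: concentration for 50% inhibition of growth. At the TGI there is no net growth.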
# System: TK-10 renal
# Assay: inhibition of tumour cell growth, NCI panel, 48 h
Compound,TGI,GI50
O=C1NC(=O)c2ccc([N+](=O)[O-])c3cccc1c23,45.8 µM,–
C[N+](C)(C)CC1CCCC(C[N+](C)(C)C)C1=O (stereo not given),4 µM,–
CN(C)CCCn1c2c(c3ccccc3c1=O)C(=O)c1ccccc1-2,11.3 µM,1.67 µM
COc1ccc2c(c1)C=C([N+](=O)[O-])C(C1OC(C)(C)OC1C1COC(C)(C)O1)O2 (stereo not given),32.4 µM,–
CN(C)CCNC(=O)c1cccc(C(=O)Nc2ccccc2)c1[N+](=O)[O-],> 100 µM,–
CC(=O)OC1Oc2ccccc2-c2oc(=O)c(-c3cc4ccc(N(C)C)cc4oc3=O)cc21 (stereo not given),19.5 µM,5.4 µM
CCC1(O)C(=O)OCc2c1cc1n(c2=O)Cc2cc3ccc(C=O)cc3nc2-1 (stereo not given),50 µM and > 100 µM,20.8 µM
COc1ccc2c(c1)C(=O)c1c-2n(CCCn2ccnc2)c(=O)c2ccccc12,15.4 µM,2.09 µM
COc1cc2oc(-c3ccc(O)cc3)cc(=O)c2c(OC)c1OC,> 100 µM,–
O=C(CCl)Nc1ccc(Cl)cc1,5.75 µM,2.3 µM
Fc1cc(F)c(COc2cc(Cn3cnc4c(Cl)nc(Cl)nc43)ccc2C23CC4CC(CC(C4)C2)C3)cc1F,31.1 µM,17.1 µM
COc1ccc(N2C(=O)C3c4[nH]c5ccc(C)cc5c4C4CCC(C(C)(C)C)CC4C3C2=O)cc1 (stereo not given),45.1 µM,–
CC/C=C\C[C@@H]1C/C=C2/C(=O)C=C[C@H]2C/C=C\CCCC(=O)O1,3.14 µM,1.48 µM
NC(=S)N/N=C/c1ccc(OC(=O)COc2ccc(Cl)cc2)cn1,> 100 µM,30 µM
O=C(N/N=C/c1cccc(O)c1O)c1ccccc1,> 69.1 µM,2.57 µM
c1ccc(C2=NNC3c4ccccc4-c4ccccc4N3C2)cc1 (stereo not given),91.7 µM,–
CN/N=C(/CCN1CCCC1)CC(c1ccccc1)c1c(O)c2ccccc2oc1=O (stereo not given),> 100 µM,–
COc1ccc(OC)c(/C=C/C(=O)N/N=C/c2ccc(Cl)cc2)c1,> 100 µM,0.383 µM
COc1ccc(C(=O)c2cc(C)c(OC)c(C)c2)c(OC)c1N(C(=O)C(Cl)Cl)C(=O)C(Cl)Cl,> 100 µM,> 79.8 µM
CCN(CC)c1sc(N(CC)CC)c2c1SSSSS2,1.88 µM,0.765 µM
NC(CC(=O)OCc1ccccc1)C(=O)OCc1ccccc1 (stereo not given),> 100 µM,–
CCCCN=C(N)c1ccc(OCCSCCOc2ccc(C(N)=NCCCC)cc2)cc1,> 100 µM,66.6 µM

# System: UO-31 renal
# Assay: inhibition of tumour cell growth, NCI panel, 48 h
Compound,TGI,GI50
O=C1NC(=O)c2ccc([N+](=O)[O-])c3cccc1c23,29.8 µM,–
C[N+](C)(C)CC1CCCC(C[N+](C)(C)C)C1=O (stereo not given),7.68 µM,–
CN(C)CCCn1c2c(c3ccccc3c1=O)C(=O)c1ccccc1-2,23.5 µM,2.5 µM
COc1ccc2c(c1)C=C([N+](=O)[O-])C(C1OC(C)(C)OC1C1COC(C)(C)O1)O2 (stereo not given),26.3 µM,–
CN(C)CCNC(=O)c1cccc(C(=O)Nc2ccccc2)c1[N+](=O)[O-],> 100 µM,–
CC(=O)OC1Oc2ccccc2-c2oc(=O)c(-c3cc4ccc(N(C)C)cc4oc3=O)cc21 (stereo not given),48.8 µM,16.9 µM
CCC1(O)C(=O)OCc2c1cc1n(c2=O)Cc2cc3ccc(C=O)cc3nc2-1 (stereo not given),5.14 µM and 7.98 µM,1.08 µM
COc1ccc2c(c1)C(=O)c1c-2n(CCCn2ccnc2)c(=O)c2ccccc12,0.476 µM,0.0867 µM
COc1cc2oc(-c3ccc(O)cc3)cc(=O)c2c(OC)c1OC,> 100 µM,–
O=C(CCl)Nc1ccc(Cl)cc1,24.1 µM,8.07 µM
Fc1cc(F)c(COc2cc(Cn3cnc4c(Cl)nc(Cl)nc43)ccc2C23CC4CC(CC(C4)C2)C3)cc1F,31.6 µM,17.8 µM
COc1ccc(N2C(=O)C3c4[nH]c5ccc(C)cc5c4C4CCC(C(C)(C)C)CC4C3C2=O)cc1 (stereo not given),40.3 µM,–
CC/C=C\C[C@@H]1C/C=C2/C(=O)C=C[C@H]2C/C=C\CCCC(=O)O1,2.23 µM,0.929 µM
NC(=S)N/N=C/c1ccc(OC(=O)COc2ccc(Cl)cc2)cn1,21.5 µM,3.24 µM
O=C(N/N=C/c1cccc(O)c1O)c1ccccc1,14 µM,0.434 µM
c1ccc(C2=NNC3c4ccccc4-c4ccccc4N3C2)cc1 (stereo not given),> 100 µM,–
CN/N=C(/CCN1CCCC1)CC(c1ccccc1)c1c(O)c2ccccc2oc1=O (stereo not given),> 100 µM,–
COc1ccc(OC)c(/C=C/C(=O)N/N=C/c2ccc(Cl)cc2)c1,> 100 µM,3.37 µM
COc1ccc(C(=O)c2cc(C)c(OC)c(C)c2)c(OC)c1N(C(=O)C(Cl)Cl)C(=O)C(Cl)Cl,> 47.5 µM,0.0736 µM
CCN(CC)c1sc(N(CC)CC)c2c1SSSSS2,2.88 µM,0.867 µM
NC(CC(=O)OCc1ccccc1)C(=O)OCc1ccccc1 (stereo not given),> 100 µM,–
CCCCN=C(N)c1ccc(OCCSCCOc2ccc(C(N)=NCCCC)cc2)cc1,> 100 µM,> 100 µM

# System: NCI-H522 lung
# Assay: inhibition of tumour cell growth, NCI panel, 48 h
Compound,TGI,GI50
O=C1NC(=O)c2ccc([N+](=O)[O-])c3cccc1c23,6.11 µM,–
C[N+](C)(C)CC1CCCC(C[N+](C)(C)C)C1=O (stereo not given),53.2 µM,–
CN(C)CCCn1c2c(c3ccccc3c1=O)C(=O)c1ccccc1-2,> 100 µM,3.62 µM
COc1ccc2c(c1)C=C([N+](=O)[O-])C(C1OC(C)(C)OC1C1COC(C)(C)O1)O2 (stereo not given),2.29 µM,–
CN(C)CCNC(=O)c1cccc(C(=O)Nc2ccccc2)c1[N+](=O)[O-],> 100 µM,–
CC(=O)OC1Oc2ccccc2-c2oc(=O)c(-c3cc4ccc(N(C)C)cc4oc3=O)cc21 (stereo not given),30.6 µM,11.9 µM
CCC1(O)C(=O)OCc2c1cc1n(c2=O)Cc2cc3ccc(C=O)cc3nc2-1 (stereo not given),15.4 µM and 13.8 µM,6.8 µM and 2.9 µM
COc1ccc2c(c1)C(=O)c1c-2n(CCCn2ccnc2)c(=O)c2ccccc12,5.5 µM,0.174 µM
COc1cc2oc(-c3ccc(O)cc3)cc(=O)c2c(OC)c1OC,> 100 µM,–
O=C(CCl)Nc1ccc(Cl)cc1,3.01 µM,1.48 µM
